{"source": "patent US10966978B2", "about": "“Dose and regimen for HDM2-p53 interaction inhibitors” (Novartis AG, priority 2016, dated 2021)", "key": {"[1]": {"assay": "Clinical PK of HDM201 in patients (non-compartmental and population PK), study HDM201X2101", "format": "in vivo, human", "details": "for Cmax: read-out: Cmax, Geo Mean (% CV); for AUC(0-t): read-out: AUClast (0-24 h), Geo Mean (% CV); for dose proportionality of PK (AUClast and Cmax): over the dose range studied, single and repeated doses", "description": "Pharmacokinetic data have been evaluated throughout the course of the dose escalation. Two HDM201 drug variants have been evaluated during the course of the study (refer to the protocol for further details). […] Furthermore, an integrated analysis of all available HDM201 concentrations was conducted using a population approach. The PK of HDM201 was best described by a 1-compartment PK model with a delayed zero- and first-order absorption process, and a linear clearance. Body weight was identified as a statistically significant covariate on apparent central volume of distribution (Vc/F), in which Vc/F increased with increasing body weight.\nInter-patient variability (CV % Geo-mean) in exposure was generally low to moderate. Compartmental population PK modeling of NVP-HDM201 was used to estimate the individual average plasma concentration for Cycle 1 and to allow comparison with preclinical average concentration for tumor stasis derived by PK/PD tumor growth modeling.\nThe PK of HDM201 have been evaluated in the ongoing single agent Phase I clinical trial in patients with solid tumors and hematological malignancies (HDM201X2101). Patients have been treated with a single dose on Day 1 in a three-week cycle (q3w, regimen 1A), with a single dose on Day 1 and Day 8 in a four-week cycle (d1 and d8 of 4 w cycle, regimen 1B), or with daily dosing for the first 7 or 14 days in a four-week cycle (regimen 2C [q.d., 1 w on/3 w off] or regimen 2A [q.d., 2 w on/2 w off], respectively). PK assessments were conducted following single dose and repeated administration. Preliminary PK parameters from non-compartmental analysis of plasma concentration-time profiles are summarized by dose regimen and tumor type (data cut-off 1 Apr. 2016). PK parameters for Regimen 2A (Day 1 and 14 of Cycle 1 for doses from 1 to 20 mg) and Regimen 1A (Day 1 of Cycle 1 for doses from 12.5 to 350 mg) in solid tumor patients are summarized as representative of the PK for daily and less frequent dosing regimens (Tables 9, 10 and 11).\nFollowing oral dosing (HDM201 capsule, fasted), the median time to reach maximum plasma concentrations ranged from 2.0 to 5.8 h across the dose range (2 to 350 mg). With the daily dosing regimen, HDM201 steady-state was generally reached by Day 8, and accumulation was less than 2-fold. […]\nFurthermore, the individual PK data was best described by a 1-compartment PK model with a delayed zero- and first-order absorption process (data cut-off 1 Apr. 2016). […] Body weight was identified as a statistically significant covariate on Vc/F."}, "[2]": {"system": "human SJSA-1 (osteosarcoma) xenograft", "assay": "PK/PD tumor growth modelling, human SJSA-1 xenograft rat model", "format": "in vivo", "details": "predicted preclinical target", "description": "Calculation of average dose level (mg/day):\nTo further support the preferred dose for HDM201, compartmental PK modeling was used to estimate the individual average concentration per cycle for the 9 patients treated at 120 mg on regimen 1B (FIG. 2). For the majority of patients (7 out of 9), the estimated average drug concentrations per cycle were near or above the most conservative average tumor stasis concentration of ≈41 ng/mL per cycle determined from PKPD modeling of preclinical data (human SJSA-1 xenograft rat model)."}, "SJSA-1 cell line": {"system": "SJSA-1 cell line", "assay": "Cellular activity in SJSA-1 cell line", "format": "cell-based", "details": "Homo sapiens"}, "[3]": {"details": "human, plasma, oral, 20 mg, Regimen 2A 20 mg daily, Day 14, solid malignancies, N = 4"}, "[4]": {"details": "human, plasma, oral, 20 mg, Regimen 2A 20 mg, Day 1 single dose, solid malignancies, N = 5"}, "[5]": {"details": "human, plasma, oral, 250 mg, Regimen 1A 250 mg, Day 1 single dose, solid malignancies, N = 6"}, "[6]": {"details": "human, plasma, oral, 350 mg, Regimen 1A 350 mg, Day 1 single dose, solid malignancies, N = 5"}}, "note": "Like-named read-outs stand apart in the source and are kept apart here.", "data": [{"smiles": "COc1ncc(-c2nc3c(n2C(C)C)[C@H](c2ccc(Cl)cc2)N(c2cc(Cl)cn(C)c2=O)C3=O)c(OC)n1", "note": "[HDM201, (S)-5-(5-Chloro-1-methyl-2-oxo-1,2-dihydro-pyridin-3-yl)-6-(4-chloro-phenyl)-2-(2,4-dimethoxy-pyrimidin-5-yl)-1-isopropyl-5,6-dihydro-1H-pyrrolo[3,4-d]imidazol-4-one]", "values": [{"measurement": "Tmax", "setting": "[1]; human, plasma, oral, 7.5 mg, Regimen 2A 7.5 mg daily, Day 14, solid malignancies, N = 2, read-out: Tmax, median", "value": 3.9, "unit": "h"}, {"measurement": "Cmax", "setting": "[1]; human, plasma, oral, 7.5 mg, Regimen 2A 7.5 mg, Day 1 single dose, solid malignancies, N = 4", "value": 39, "unit": "ng/mL"}, {"measurement": "Tmax", "setting": "[1]; human, plasma, oral, 7.5 mg, Regimen 2A 7.5 mg, Day 1 single dose, solid malignancies, N = 4, read-out: Tmax, median", "value": 5.8, "unit": "h"}, {"measurement": "Tmax", "setting": "[1]; human, plasma, oral, 12.5 mg, Regimen 1A 12.5 mg, Day 1 single dose, solid malignancies, N = 1, read-out: Tmax, median", "value": 3.2, "unit": "h"}, {"measurement": "Tmax", "setting": "[1]; human, plasma, oral, 15 mg, Regimen 2A 15 mg daily, Day 14, solid malignancies, N = 4, read-out: Tmax, median", "value": 3, "unit": "h"}, {"measurement": "Tmax", "setting": "[1]; human, plasma, oral, 15 mg, Regimen 2A 15 mg, Day 1 single dose, solid malignancies, N = 4, read-out: Tmax, median", "value": 3.1, "unit": "h"}, {"measurement": "AUC(0-t)", "setting": "[1]; [3]", "value": 1260, "unit": "ng·h/mL"}, {"measurement": "Cmax", "setting": "[1]; [3]", "value": 214, "unit": "ng/mL"}, {"measurement": "Tmax", "setting": "[1]; human, plasma, oral, 20 mg, Regimen 2A 20 mg daily, Day 14, solid malignancies, N = 4, read-out: Tmax, median", "value": 4, "unit": "h"}, {"measurement": "AUC(0-t)", "setting": "[1]; [4]", "value": 2300, "unit": "ng·h/mL"}, {"measurement": "Cmax", "setting": "[1]; [4]", "value": 164, "unit": "ng/mL"}, {"measurement": "Tmax", "setting": "[1]; human, plasma, oral, 20 mg, Regimen 2A 20 mg, Day 1 single dose, solid malignancies, N = 5, read-out: Tmax, median", "value": 2, "unit": "h"}, {"measurement": "Cmax", "setting": "[1]; human, plasma, oral, 25 mg, Regimen 1A 25 mg, Day 1 single dose, solid malignancies, N = 1", "value": 100, "unit": "ng/mL"}, {"measurement": "Tmax", "setting": "[1]; human, plasma, oral, 25 mg, Regimen 1A 25 mg, Day 1 single dose, solid malignancies, N = 1, read-out: Tmax, median", "value": 2.1, "unit": "h"}, {"measurement": "Tmax", "setting": "[1]; human, plasma, oral, 50 mg, Regimen 1A 50 mg, Day 1 single dose, solid malignancies, N = 4, read-out: Tmax, median", "value": 3, "unit": "h"}, {"measurement": "half-life", "setting": "[1]; human, plasma, oral, 50 mg, Regimen 1A 50 mg, Day 1 single dose, solid malignancies, N = 4, read-out: T½, Geo Mean (% CV) (converted)", "value": 11.8, "unit": "h"}, {"measurement": "half-life", "setting": "[1]; human, plasma, oral, 100 mg, Regimen 1A 100 mg, Day 1 single dose, solid malignancies, N = 3, read-out: T½, Geo Mean (% CV) (converted)", "value": 16.3, "unit": "h"}, {"measurement": "Tmax", "setting": "[1]; human, plasma, oral, 100 mg, Regimen 1A 100 mg, Day 1 single dose, solid malignancies, N = 4, read-out: Tmax, median", "value": 3.5, "unit": "h"}, {"measurement": "half-life", "setting": "[1]; human, plasma, oral, 200 mg, Regimen 1A 200 mg, Day 1 single dose, solid malignancies, N = 4, read-out: T½, Geo Mean (% CV) (converted)", "value": 15.1, "unit": "h"}, {"measurement": "Tmax", "setting": "[1]; human, plasma, oral, 200 mg, Regimen 1A 200 mg, Day 1 single dose, solid malignancies, N = 5, read-out: Tmax, median", "value": 3, "unit": "h"}, {"measurement": "half-life", "setting": "[1]; human, plasma, oral, 250 mg, Regimen 1A 250 mg, Day 1 single dose, solid malignancies, N = 5, read-out: T½, Geo Mean (% CV) (converted)", "value": 15.3, "unit": "h"}, {"measurement": "AUC(0-t)", "setting": "[1]; [5]", "value": 23900, "unit": "ng·h/mL"}, {"measurement": "Cmax", "setting": "[1]; [5]", "value": 1070, "unit": "ng/mL"}, {"measurement": "Tmax", "setting": "[1]; human, plasma, oral, 250 mg, Regimen 1A 250 mg, Day 1 single dose, solid malignancies, N = 6, read-out: Tmax, median", "value": 3.5, "unit": "h"}, {"measurement": "half-life", "setting": "[1]; human, plasma, oral, 350 mg, Regimen 1A 350 mg, Day 1 single dose, solid malignancies, N = 4, read-out: T½, Geo Mean (% CV) (converted)", "value": 15.1, "unit": "h"}, {"measurement": "AUC(0-t)", "setting": "[1]; [6]", "value": 50500, "unit": "ng·h/mL"}, {"measurement": "Cmax", "setting": "[1]; [6]", "value": 1940, "unit": "ng/mL"}, {"measurement": "Tmax", "setting": "[1]; human, plasma, oral, 350 mg, Regimen 1A 350 mg, Day 1 single dose, solid malignancies, N = 5, read-out: Tmax, median", "value": 4.1, "unit": "h"}, {"measurement": "half-life", "setting": "[1]; human, plasma, oral, after Day 1 single dose (50-350 mg), read-out: Median half-life", "value": "13.7 to 23.1", "unit": "h"}, {"measurement": "half-life", "setting": "[1]; human, plasma, oral, after a single dose (50 to 350 mg), read-out: Mean T½", "value": "11.8 to 16.3", "unit": "h"}, {"measurement": "Vd/F", "setting": "[1]; human, plasma, oral, population PK, 1-compartment model, read-out: apparent volume of distribution of the central compartment (Vc/F), mean population estimate", "value": 119, "unit": "L"}, {"measurement": "Tmax", "setting": "[1]; human, plasma, po, across dose range 2 to 350 mg, read-out: median time to reach maximum plasma concentrations (Tmax)", "value": "2 to 5.8", "unit": "h"}, {"measurement": "dose proportionality of PK (AUClast and Cmax)", "setting": "[1]", "value": "approximately dose proportional"}, {"measurement": "dose proportionality of PK (AUClast and Cmax)", "setting": "[1]; listed as NVP-HDM201", "value": "no major deviations from dose proportionality"}, {"measurement": "inter-individual variability of CL/F", "setting": "[1]; population PK", "value": 48, "unit": "%"}, {"measurement": "inter-individual variability of Vc/F", "setting": "[1]; population PK", "value": 30, "unit": "%"}, {"measurement": "apparent oral clearance (CL/F), mean population estimate", "setting": "[1]; population PK, 1-compartment model", "value": 6.18, "unit": "L/h"}, {"measurement": "patients with estimated average concentration per cycle near or above tumor stasis concentration", "setting": "[1]; regimen 1B 120 mg, out of 9 patients", "value": 7}, {"measurement": "average concentration (target efficacious level) for 95% tumor regression", "setting": "[2]", "value": 120, "unit": "ng/mL"}, {"measurement": "IC50", "setting": "SJSA-1 cell line", "value": 0.0294, "unit": "µg/mL"}]}]}
